Measured values as given in patent publication US12344614B2, “Benzodiazepine derivatives as GABA a GAMMA1 PAM” (Hoffmann-La Roche Inc., priority 2021, dated 2025).
Read-outs that look alike come from different tables or passages of the source.

Key:
[1] = target: human GABAA α1β2γ1 receptor (Homo sapiens (Human), UniProt P14867+Q8N1C3); test: Radioligand binding assay, competition for [3H]RO7239181, membranes from HEK293F cells
h-GABA-A α2β2γ1 receptor = h-GABA-A α2β2γ1 receptor (Homo sapiens (Human), UniProt P47869+Q8N1C3); test: Two-electrode voltage clamp electrophysiology in Xenopus oocytes expressing GABAA receptors; assay type: cell-based; details: for Efficacy (GABA) %: % modulation of GABA EC20 = 100*(Fold increase−1), compound at 30-fold Ki α2β2γ1; for Fold increase h-GABA-A α2β2γ1 oocyte @ 30-fold Ki: Xenopus oocytes, GABA EC20, test compound at approx. 30-fold its Ki α2β2γ1
Protocol: Xenopus laevis oocytes at maturation stages V-VI were used for the expression of cloned mRNA encoding GABAA receptor subunits. Oocytes ready for RNA micro-injection were bought from Ecocyte, Castrop-Rauxel, Germany and stored in modified Barth's medium (composition in mM: NaCl 88, KCl 1, NaHCO3 2.4, HEPES 10, MgSO4 0.82, CaNO3 0.33, CaCl2 0.33, pH=7.5) at 20° C. until the experiment.
Oocytes were plated in 96-well plates for microinjection using the Roboinject automated instrument (MultiChannelSystems, Reutlingen, Germany). Approximately 50 nL of an aqueous solution containing the RNA transcripts for the subunits of the desired GABAA receptor subtype was injected into each oocyte. […] Oocytes were kept in modified Barth's medium (composition in mM: NaCl 88, KCl 1, NaHCO3 4, HEPES 10, MgSO4 0.82, CaNO3 0.33, CaCl, 0.33, pH=7.5) at 20° C. until the experiment.
Electrophysiological experiments were performed using the Roboocyte instrument (MultiChannelSystems, Reutlingen, Germany) on days 3 to 5 after the micro-injection of mRNA. During the experiment the oocytes were constantly superfused by a solution containing (in mM) NaCl 90, KCl 1, HEPES 5, MgCl2 1, CaCl2 1 (pH 7.4). Oocytes were impaled by two glass microelectrodes (resistance: 0.5-0.8 MΩ) which were filled with a solution containing KCl 1M+K-acetate 1.5 M and voltage-clamped to −80 mV. The recordings were performed at room temperature using the Roboocyte two-electrode voltage clamp system (Multichannelsystem). After an initial equilibration period of 1.5 min GABA was added for 1.5 min at a concentration evoking approximately 20% of a maximal current response (EC2O). After another rest interval of 2.5 min GABA was again added evoking a response of similar amplitude and shape. […] Current traces were recorded at a digitization rate of 10 Hz during and shortly before and after the GABA application.
Each compound and concentration was tested on at least 3 oocytes. Different oocytes were used for different compound concentrations.
For the analysis, the digitized current traces of the first and second GABA response were superimposed and, if necessary, rescaled to equal maximal amplitudes. The ratio between the two responses during the time interval of test compound application was calculated point by point. The extremum of the resulting “ratio trace” was taken as the efficacy (“Fold increase”) of the compound expressed as “% modulation of GABA EC20” (100*(Fold increase−1)).

Structure (SMILES)	Ki [1] [nM]	Efficacy (GABA) % (h-GABA-A α2β2γ1 receptor) [%]	Fold increase h-GABA-A α2β2γ1 oocyte @ 30-fold Ki (h-GABA-A α2β2γ1 receptor)	Ki ([1]; read-out: Ki h-GABAA α1β2γ1, [3H]RO7239181 20-30 nM, HEK293F membranes, 1 hour at 4° C., mean of two determinations) [nM]	Ki ([1]; [3H]RO7239181 20-30 nM, HEK293F membranes, 1 hour at 4° C., mean of two determinations, read-out: Ki h-GABAA α1β2γ1) [nM]
Cc1ccc2c(c1Cl)C(c1cc(O)ccc1F)=NCC(=O)N2C [Example 2, 6-chloro-5-(2-fluoro-5-hydroxy-phenyl)-1,7-dimethyl-3H-1,4-benzodiazepin-2-one]	3.49	70	1.70		
Cc1cnc2n1-c1ccc(C(F)(F)F)c(Cl)c1C(c1nc(O)ccc1F)=N[C@H]2C [Example 23, 6-[(4S)-7-chloro-1,4-dimethyl-8-(trifluoromethyl)-4H-imidazo[1,2-a][1,4]benzodiazepin-6-yl]-5-fluoro-pyridin-2-ol]		68	1.68		
COC1CN(C(=O)c2nc3n(n2)-c2ccc(Cl)c(Cl)c2C(c2cc(O)ccc2F)=NC3)C1 [Example 7, [7,8-dichloro-6-(2-fluoro-5-hydroxy-phenyl)-4H-[1,2,4]triazolo[1,5-a][1,4]benzodiazepin-2-yl]-(3-methoxyazetidin-1-yl)methanone]		65	1.65		
CN1C(=O)CN=C(c2cc(O)ccc2F)c2c1ccc(Cl)c2Cl [Example 1, 6,7-dichloro-5-(2-fluoro-5-hydroxy-phenyl)-1-methyl-3H-1,4-benzodiazepin-2-one]	2.9	90	1.90	2.9	
Cc1nnc2n1-c1ccc(Cl)c(Cl)c1C(c1c(F)ccc(O)c1F)=NC2 [Example 13, 3-(7,8-dichloro-1-methyl-4H-[1,2,4]triazolo[4,3-a][1,4]benzodiazepin-6-yl)-2,4-difluoro-phenol]		72	1.72		
CN1C(=O)CN=C(c2cc(O)ccc2F)c2c1ccc(C(F)(F)F)c2Cl [Example 8, 6-chloro-5-(2-fluoro-5-hydroxy-phenyl)-1-methyl-7-(trifluoromethyl)-3H-1,4-benzodiazepin-2-one]	5.43	75	1.75		
Cc1nnc2n1-c1ccc(Cl)c(Cl)c1C(c1cc(O)ccc1F)=N[C@H]2C [Example 4, 4-fluoro-3-[(4S)-7,8-dichloro-1,4-dimethyl-4H-[1,2,4]triazolo[4,3-a][1,4]benzodiazepin-6-yl]phenol]	3.35	33	1.33		
O=c1ccn2c(n1)CN=C(c1cc(O)ccc1F)c1c-2ccc(Cl)c1Cl [Example 6, 8,9-dichloro-7-(2-fluoro-5-hydroxy-phenyl)-5H-pyrimido[1,2-a][1,4]benzodiazepin-3-one]		92	1.92		
O=c1ccn2c(n1)CN=C(c1c(F)ccc(O)c1F)c1c-2ccc(Cl)c1Cl [Example 14, 8,9-dichloro-7-(2,6-difluoro-3-hydroxy-phenyl)-5H-pyrimido[1,2-a][1,4]benzodiazepin-3-one]		68	1.68		
Cc1nnc2n1-c1ccc(C(F)(F)F)c(Cl)c1C(c1nc(O)ccc1F)=N[C@H]2C [Example 20, 6-[(4S)-7-chloro-1,4-dimethyl-8-(trifluoromethyl)-4H-[1,2,4]triazolo[4,3-a][1,4]benzodiazepin-6-yl]-5-fluoro-pyridin-2-ol]	68.1	120	2.20		
COC1CN(C(=O)c2nc3n(n2)-c2ccc(C(F)(F)F)c(Cl)c2C(c2cc(O)ccc2F)=NC3)C1 [Example 16, [7-chloro-6-(2-fluoro-5-hydroxy-phenyl)-8-(trifluoromethyl)-4H-[1,2,4]triazolo[1,5-a][1,4]benzodiazepin-2-yl]-(3-methoxyazetidin-1-yl)methanone]		48	1.48		11.4
Cc1cn2c(n1)[C@H](C)N=C(c1nc(O)ccc1F)c1c-2ccc(C(F)(F)F)c1Cl [Example 28, 6-[(4S)-7-chloro-2,4-dimethyl-8-(trifluoromethyl)-4H-imidazo[1,2-a][1,4]benzodiazepin-6-yl]-5-fluoro-pyridin-2-ol]	19.9	68	1.68		
Cc1nc2n(n1)-c1ccc(C(F)(F)F)c(Cl)c1C(c1nc(O)ccc1F)=N[C@H]2C [Example 25, 6-[(4S)-7-chloro-2,4-dimethyl-8-(trifluoromethyl)-4H-[1,2,4]triazolo[1,5-a][1,4]benzodiazepin-6-yl]-5-fluoro-pyridin-2-ol]	25.3	45	1.45		
Cc1nnc2n1-c1ccc(C(F)(F)F)c(Cl)c1C(c1cc(O)ccc1F)=NC2 [Example 9, 3-[7-chloro-1-methyl-8-(trifluoromethyl)-4H-[1,2,4]triazolo[4,3-a][1,4]benzodiazepin-6-yl]-4-fluoro-phenol]	8.45	69	1.69		
Cc1nc2n(n1)-c1ccc(C(F)(F)F)c(Cl)c1C(c1nc(O)ccc1Cl)=N[C@H]2C [Example 29, 5-chloro-6-[(4S)-7-chloro-2,4-dimethyl-8-(trifluoromethyl)-4H-[1,2,4]triazolo[1,5-a][1,4]benzodiazepin-6-yl]pyridin-2-ol]		70	1.70		
COC1CN(C(=O)c2ncn3c2CN=C(c2cc(O)ccc2F)c2c-3ccc(C(F)(F)F)c2Cl)C1 [Example 15, [7-chloro-6-(2-fluoro-5-hydroxy-phenyl)-8-(trifluoromethyl)-4H-imidazo[1,5-a][1,4]benzodiazepin-3-yl]-(3-methoxyazetidin-1-yl)methanone]		80	1.80		
Oc1ccc(F)c(C2=NCc3nncn3-c3ccc(C(F)(F)F)c(Cl)c32)c1 [Example 10, 3-[7-chloro-8-(trifluoromethyl)-4H-[1,2,4]triazolo[4,3-a][1,4]benzodiazepin-6-yl]-4-fluoro-phenol]		73	1.73		
C[C@@H]1N=C(c2c(F)ccc(O)c2F)c2c(ccc(Cl)c2Cl)-n2ccc(=O)nc21 [Example 18, (5S)-8,9-dichloro-7-(2,6-difluoro-3-hydroxy-phenyl)-5-methyl-5H-pyrimido[1,2-a][1,4]benzodiazepin-3-one]		57	1.57		
CN1C(=O)CN=C(c2c(F)ccc(O)c2F)c2c1ccc(Cl)c2Cl [Example 12, 6,7-dichloro-5-(2,6-difluoro-3-hydroxy-phenyl)-1-methyl-3H-1,4-benzodiazepin-2-one]		99	1.99		
C[C@@H]1N=C(c2nc(O)ccc2F)c2c(ccc(C(F)(F)F)c2Cl)-n2c1nc1c2CCC1 [Example 24, 6-[(10S)-6-chloro-10-methyl-5-(trifluoromethyl)-1,9,12-triazatetracyclo[9.6.0.02,7.013,17]heptadeca-2(7),3,5,8,11,13(17)-hexaen-8-yl]-5-fluoro-pyridin-2-ol]		64	1.64		
C[C@@H]1N=C(c2nc(O)ccc2F)c2c(ccc(C(F)(F)F)c2Cl)-n2cc(C(=O)N3CCC3)nc21 [Example 30, azetidin-1-yl-[(4S)-7-chloro-6-(3-fluoro-6-hydroxy-2-pyridyl)-4-methyl-8-(trifluoromethyl)-4H-imidazo[1,2-a][1,4]benzodiazepin-2-yl]methanone]		120	2.20		
Cc1nnc2n1-c1ccc(C(F)(F)F)c(Cl)c1C(c1cc(O)ccc1F)=N[C@H]2C [Example 17, 4-fluoro-3-[(4S)-7-chloro-1,4-dimethyl-8-(trifluoromethyl)-4H-[1,2,4]triazolo[4,3-a][1,4]benzodiazepin-6-yl]phenol]		77	1.77		
